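Growth conditions: 96-well plates. Treatment: test compound, 48 hours, 5 concentrations. Analysis: linear interpolation between bracketing concentrations; unreached endpoints set to highest concentration. GI50: concentration for 50% inhibition of growth.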 Activity calls are given as the source filed them. Rule as the data show it: active = GI50 up to about 1.1 µM and inactive = higher.
Legend:
Test in all cases: inhibition of tumour cell growth, NCI panel, 48 h
786-0 = system: 786-0
A498 = system: A498
A549 = system: A549
ACHN = system: ACHN
BT-549 = system: BT-549
CAKI-1 = system: CAKI-1
CCRF-CEM = system: CCRF-CEM
COLO 205 = system: COLO 205
DU-145 = system: DU-145
EKVX = system: EKVX
HCC 2998 = system: HCC 2998
HCT-116 = system: HCT-116
HCT-15 = system: HCT-15
HL-60 = system: HL-60
HOP-62 = system: HOP-62
HOP-92 = system: HOP-92
HT-29 = system: HT-29
Hs-578T = system: Hs-578T
IGROV-1 = system: IGROV-1
K562 = system: K562
KM12 = system: KM12
LOX IMVI = system: LOX IMVI
MCF7 = system: MCF7
MDA-MB-231 = system: MDA-MB-231
MDA-MB-435 = system: MDA-MB-435
MDA-N = system: MDA-N
MOLT-4 = system: MOLT-4
Malme-3M = system: Malme-3M
NCI-H226 = system: NCI-H226
NCI-H23 = system: NCI-H23
NCI-H460 = system: NCI-H460
NCI-H522 = system: NCI-H522
NCI/ADR-RES = system: NCI/ADR-RES
OVCAR-3 = system: OVCAR-3
OVCAR-4 = system: OVCAR-4
OVCAR-5 = system: OVCAR-5
OVCAR-8 = system: OVCAR-8
PC-3 = system: PC-3
RPMI-8226 = system: RPMI-8226
RXF 393 = system: RXF 393
SF-268 = system: SF-268
SF-295 = system: SF-295
SF-539 = system: SF-539
SK-MEL-28 = system: SK-MEL-28
SK-MEL-2 = system: SK-MEL-2
SK-MEL-5 = system: SK-MEL-5
SK-OV-3 = system: SK-OV-3
SN12C = system: SN12C
SNB-75 = system: SNB-75
SR = system: SR
SW-620 = system: SW-620
T47D = system: T47D
TK-10 = system: TK-10
U-251 = system: U-251
UACC-257 = system: UACC-257
UACC-62 = system: UACC-62
UO-31 = system: UO-31
M14 = system: M14
SNB-19 = system: SNB-19

In the case of `CN(/N=C(\C(=O)O)c1ccccc1)C1=NCCCCN1`, the GI50 (786-0) is reported as > 100 µM (inactive), the GI50 (A498) is reported as > 100 µM (inactive) and the GI50 (A549) is reported as > 100 µM (inactive). For the same compound, the GI50 (ACHN) was > 100 µM (inactive), the GI50 (BT-549) was > 100 µM (inactive) and the GI50 (CAKI-1) was > 100 µM (inactive). For the same compound, the GI50 (CCRF-CEM) was > 100 µM (inactive), the GI50 (COLO 205) was > 100 µM (inactive) and the GI50 (DU-145) was > 100 µM (inactive). The GI50 (EKVX) was > 100 µM (inactive), the GI50 (HCC 2998) was > 100 µM (inactive) and the GI50 (HCT-116) was > 100 µM (inactive). For the same compound, the GI50 (HCT-15) was over 100 µM, the GI50 (HL-60) was > 100 µM (inactive) and the GI50 (HOP-62) was > 100 µM (inactive). The GI50 (HOP-92) was > 100 µM (inactive), the GI50 (HT-29) was > 100 µM (inactive) and the GI50 (Hs-578T) was > 100 µM (inactive). The GI50 (IGROV-1) was 94.6 µM (inactive), the GI50 (K562) was > 100 µM (inactive) and the GI50 (KM12) was > 100 µM (inactive). For the same compound, the GI50 (LOX IMVI) was > 100 µM (inactive), the GI50 (MCF7) was > 100 µM (inactive) and the GI50 (MDA-MB-231) was > 100 µM (inactive). The GI50 (MDA-MB-435) was > 100 µM (inactive), the GI50 (MDA-N) was > 100 µM (inactive) and the GI50 (MOLT-4) was > 100 µM (inactive). The GI50 (Malme-3M) was > 100 µM (inactive), the GI50 (NCI-H226) was > 100 µM (inactive) and the GI50 (NCI-H23) was > 100 µM (inactive). The GI50 (NCI-H460) was > 100 µM (inactive), the GI50 (NCI-H522) was > 100 µM (inactive) and the GI50 (NCI/ADR-RES) was > 100 µM (inactive). The GI50 (OVCAR-3) was > 100 µM (inactive), the GI50 (OVCAR-4) was > 100 µM (inactive) and the GI50 (OVCAR-5) was > 100 µM (inactive). For the same compound, the GI50 (OVCAR-8) was > 100 µM (inactive), the GI50 (PC-3) was > 100 µM (inactive) and the GI50 (RPMI-8226) was > 100 µM (inactive). The GI50 (RXF 393) was > 100 µM (inactive), the GI50 (SF-268) was > 100 µM (inactive) and the GI50 (SF-295) was > 100 µM (inactive). For the same compound, the GI50 (SF-539) was > 100 µM (inactive), the GI50 (SK-MEL-28) was > 100 µM (inactive) and the GI50 (SK-MEL-2) was > 100 µM (inactive). The GI50 (SK-MEL-5) was > 100 µM (inactive), the GI50 (SK-OV-3) was > 100 µM (inactive) and the GI50 (SN12C) was > 100 µM (inactive). For the same compound, the GI50 (SNB-75) was > 100 µM (inactive), the GI50 (SR) was > 100 µM (inactive) and the GI50 (SW-620) was > 100 µM (inactive). The GI50 (T47D) was > 100 µM (inactive), the GI50 (TK-10) was > 100 µM (inactive) and the GI50 (U-251) was > 100 µM (inactive). The GI50 (UACC-257) was > 100 µM (inactive), the GI50 (UACC-62) was > 100 µM (inactive) and the GI50 (UO-31) was > 100 µM (inactive).
In the case of `CCCCON1C[C@H](OC(C)=O)C(OC(C)=O)[C@H](OC(C)=O)C1` (stereo not given in full), the GI50 (786-0) is reported as > 100 µM (inactive), the GI50 (A498) is reported as > 100 µM (inactive) and the GI50 (A549) is reported as > 100 µM (inactive). The GI50 (ACHN) was > 100 µM (inactive), the GI50 (BT-549) was > 100 µM (inactive) and the GI50 (CAKI-1) was > 100 µM (inactive). For the same compound, the GI50 (CCRF-CEM) was > 100 µM (inactive), the GI50 (COLO 205) was > 100 µM (inactive) and the GI50 (DU-145) was > 100 µM (inactive). The GI50 (EKVX) was > 100 µM (inactive), the GI50 (HCC 2998) was > 100 µM (inactive) and the GI50 (HCT-116) was > 100 µM (inactive). The GI50 (HCT-15) was over 100 µM, the GI50 (HL-60) was > 100 µM (inactive) and the GI50 (HOP-62) was > 100 µM (inactive). For the same compound, the GI50 (HOP-92) was > 100 µM (inactive), the GI50 (HT-29) was > 100 µM (inactive) and the GI50 (Hs-578T) was > 100 µM (inactive). For the same compound, the GI50 (IGROV-1) was > 100 µM (inactive), the GI50 (K562) was > 100 µM (inactive) and the GI50 (KM12) was > 100 µM (inactive). For the same compound, the GI50 (LOX IMVI) was > 100 µM (inactive), the GI50 (M14) was > 100 µM (inactive) and the GI50 (MCF7) was > 100 µM (inactive). For the same compound, the GI50 (MDA-MB-231) was > 100 µM (inactive), the GI50 (MDA-MB-435) was > 100 µM (inactive) and the GI50 (MDA-N) was > 100 µM (inactive). The GI50 (MOLT-4) was > 100 µM (inactive), the GI50 (Malme-3M) was > 100 µM (inactive) and the GI50 (NCI-H226) was > 100 µM (inactive). The GI50 (NCI-H23) was > 100 µM (inactive), the GI50 (NCI-H460) was > 100 µM (inactive) and the GI50 (NCI-H522) was > 100 µM (inactive). The GI50 (NCI/ADR-RES) was > 100 µM (inactive), the GI50 (OVCAR-3) was > 100 µM (inactive) and the GI50 (OVCAR-4) was 7.14 µM (inactive). For the same compound, the GI50 (OVCAR-8) was > 100 µM (inactive), the GI50 (PC-3) was > 100 µM (inactive) and the GI50 (RPMI-8226) was > 100 µM (inactive). The GI50 (RXF 393) was > 100 µM (inactive), the GI50 (SF-268) was > 100 µM (inactive) and the GI50 (SF-295) was > 100 µM (inactive). The GI50 (SF-539) was > 100 µM (inactive), the GI50 (SK-MEL-28) was > 100 µM (inactive) and the GI50 (SK-MEL-2) was > 100 µM (inactive). For the same compound, the GI50 (SK-MEL-5) was > 100 µM (inactive), the GI50 (SK-OV-3) was > 100 µM (inactive) and the GI50 (SN12C) was > 100 µM (inactive). For the same compound, the GI50 (SNB-19) was > 100 µM (inactive), the GI50 (SNB-75) was > 100 µM (inactive) and the GI50 (SR) was > 100 µM (inactive). The GI50 (SW-620) was > 10 µM (inactive), the GI50 (T47D) was > 100 µM (inactive) and the GI50 (TK-10) was > 100 µM (inactive). For the same compound, the GI50 (U-251) was > 100 µM (inactive), the GI50 (UACC-257) was > 100 µM (inactive) and the GI50 (UACC-62) was > 100 µM (inactive). For the same compound, the GI50 (UO-31) was > 100 µM (inactive).

From ChEMBL document CHEMBL1201862, “PubChem BioAssay data set” (2004)
